Measurements published in the kinase profiling compilation of Christmann-Franck et al. (2016).

Tests used:
Assay in all cases: KINOMEscan competition binding
Settings in all cases: compound 10.0 µM
ACVR2B (human) = ACVR2B (human) (UniProt Q13705)
AKT3 (human) = AKT3 (human) (UniProt Q9Y243)
AURKC (human) = AURKC (human) (UniProt Q9UQB9)
BMPR1A (human) = BMPR1A (human) (UniProt P36894)
CDK15 (human) = CDK15 (human) (UniProt Q96Q40)
CDK19 (human) = CDK19 (human) (UniProt Q9BWU1)
CDKL1 (human) = CDKL1 (human) (UniProt Q00532)
CDKL5 (human) = CDKL5 (human) (UniProt O76039)
CSNK1G2 (human) = CSNK1G2 (human) (UniProt P78368)
CSNK2A2 (human) = CSNK2A2 (human) (UniProt P19784)
DYRK2 (human) = DYRK2 (human) (UniProt Q92630)
EPHA1 (human) = EPHA1 (human) (UniProt P21709)
FGR (human) = FGR (human) (UniProt P09769)
[1] = system: FLT3 (human), P36888 [N841I]
HIPK4 (human) = HIPK4 (human) (UniProt Q8NE63)
LATS1 (human) = LATS1 (human) (UniProt O95835)
MAP3K1 (human) = MAP3K1 (human) (UniProt Q13233)
MAP3K15 (human) = MAP3K15 (human) (UniProt Q6ZN16)
MAP3K7 (human) = MAP3K7 (human) (UniProt O43318)
NEK5 (human) = NEK5 (human) (UniProt Q6P3R8)
NEK7 (human) = NEK7 (human) (UniProt Q8TDX7)
[2] = system: PIK3CA (human), P42336 [H1047L]
PIM3 (human) = PIM3 (human) (UniProt Q86V86)
PIP5K1C (human) = PIP5K1C (human) (UniProt O60331)
PRKAA2 (human) = PRKAA2 (human) (UniProt P54646)
PRKCH (human) = PRKCH (human) (UniProt P24723)
PTK2 (human) = PTK2 (human) (UniProt Q05397)
PTK2B (human) = PTK2B (human) (UniProt Q14289)
RPS6KA1 KD2 (human) = RPS6KA1 KD2 (human) (UniProt Q15418)
RPS6KA4 KD2 (human) = RPS6KA4 KD2 (human) (UniProt O75676)
RPS6KB1 (human) = RPS6KB1 (human) (UniProt P23443)
SRMS (human) = SRMS (human) (UniProt Q9H3Y6)
SRPK2 (human) = SRPK2 (human) (UniProt P78362)
STK16 (human) = STK16 (human) (UniProt O75716)
STK33 (human) = STK33 (human) (UniProt Q9BYT3)
STK36 (human) = STK36 (human) (UniProt Q9NRP7)
STK38 (human) = STK38 (human) (UniProt Q15208)
STK38L (human) = STK38L (human) (UniProt Q9Y2H1)
TEC (human) = TEC (human) (UniProt P42680)
TTK (human) = TTK (human) (UniProt P33981)
ULK2 (human) = ULK2 (human) (UniProt Q8IYT8)

RPS6KB1 (human), sequence (P23443 whole entry, looked up): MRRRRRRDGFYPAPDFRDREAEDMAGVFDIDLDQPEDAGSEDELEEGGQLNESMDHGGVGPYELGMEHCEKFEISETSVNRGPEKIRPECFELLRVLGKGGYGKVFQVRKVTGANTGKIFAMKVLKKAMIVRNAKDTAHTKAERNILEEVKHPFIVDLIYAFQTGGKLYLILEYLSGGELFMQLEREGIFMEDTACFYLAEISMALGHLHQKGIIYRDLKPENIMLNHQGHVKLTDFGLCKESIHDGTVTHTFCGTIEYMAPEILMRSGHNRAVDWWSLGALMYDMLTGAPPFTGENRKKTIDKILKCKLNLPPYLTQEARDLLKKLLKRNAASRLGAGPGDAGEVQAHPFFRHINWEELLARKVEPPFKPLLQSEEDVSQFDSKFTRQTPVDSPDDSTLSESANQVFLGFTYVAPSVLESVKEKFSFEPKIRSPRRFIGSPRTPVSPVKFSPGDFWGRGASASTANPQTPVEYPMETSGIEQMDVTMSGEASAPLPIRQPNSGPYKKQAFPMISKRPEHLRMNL
PRKAA2 (human), sequence (P54646 whole entry, looked up): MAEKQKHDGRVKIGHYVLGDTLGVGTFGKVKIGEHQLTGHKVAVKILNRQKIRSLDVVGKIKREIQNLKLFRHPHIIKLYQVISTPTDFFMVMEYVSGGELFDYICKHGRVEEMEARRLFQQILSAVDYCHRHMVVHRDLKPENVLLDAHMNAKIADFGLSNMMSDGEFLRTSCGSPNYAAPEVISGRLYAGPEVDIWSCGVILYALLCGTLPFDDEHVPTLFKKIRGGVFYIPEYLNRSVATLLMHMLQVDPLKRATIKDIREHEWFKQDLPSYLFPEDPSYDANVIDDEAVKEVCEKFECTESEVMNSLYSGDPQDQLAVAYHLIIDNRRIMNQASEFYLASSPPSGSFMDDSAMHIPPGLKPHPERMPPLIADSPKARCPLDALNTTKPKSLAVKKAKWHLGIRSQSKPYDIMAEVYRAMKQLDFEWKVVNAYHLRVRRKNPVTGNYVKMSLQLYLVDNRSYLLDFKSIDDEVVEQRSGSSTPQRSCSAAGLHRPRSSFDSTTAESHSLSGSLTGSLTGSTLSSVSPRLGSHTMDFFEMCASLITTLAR
CSNK2A2 (human), sequence (P19784 whole entry, looked up): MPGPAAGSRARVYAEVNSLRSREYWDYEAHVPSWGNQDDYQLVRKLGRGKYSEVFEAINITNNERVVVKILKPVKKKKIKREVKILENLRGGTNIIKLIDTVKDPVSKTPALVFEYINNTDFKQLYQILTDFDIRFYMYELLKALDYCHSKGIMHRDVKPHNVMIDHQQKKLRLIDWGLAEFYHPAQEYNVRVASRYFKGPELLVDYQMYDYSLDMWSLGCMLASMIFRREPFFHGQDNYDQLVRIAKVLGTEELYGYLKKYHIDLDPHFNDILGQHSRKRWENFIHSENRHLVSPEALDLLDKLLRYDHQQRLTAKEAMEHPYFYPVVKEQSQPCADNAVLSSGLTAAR
SRMS (human), sequence (Q9H3Y6 whole entry, looked up): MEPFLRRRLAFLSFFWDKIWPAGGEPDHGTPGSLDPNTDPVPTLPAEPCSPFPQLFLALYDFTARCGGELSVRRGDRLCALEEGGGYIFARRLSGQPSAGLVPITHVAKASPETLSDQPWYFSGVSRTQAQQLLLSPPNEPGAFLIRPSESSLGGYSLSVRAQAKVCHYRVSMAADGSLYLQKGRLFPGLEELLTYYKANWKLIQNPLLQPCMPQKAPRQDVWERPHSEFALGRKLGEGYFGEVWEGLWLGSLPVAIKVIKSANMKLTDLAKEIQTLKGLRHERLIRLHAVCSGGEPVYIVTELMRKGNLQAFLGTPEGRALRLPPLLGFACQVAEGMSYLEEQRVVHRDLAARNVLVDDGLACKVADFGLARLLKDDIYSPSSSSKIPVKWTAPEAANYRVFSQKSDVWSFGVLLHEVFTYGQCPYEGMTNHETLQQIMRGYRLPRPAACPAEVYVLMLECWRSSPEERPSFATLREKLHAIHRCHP
PRKCH (human), sequence (P24723 whole entry, looked up): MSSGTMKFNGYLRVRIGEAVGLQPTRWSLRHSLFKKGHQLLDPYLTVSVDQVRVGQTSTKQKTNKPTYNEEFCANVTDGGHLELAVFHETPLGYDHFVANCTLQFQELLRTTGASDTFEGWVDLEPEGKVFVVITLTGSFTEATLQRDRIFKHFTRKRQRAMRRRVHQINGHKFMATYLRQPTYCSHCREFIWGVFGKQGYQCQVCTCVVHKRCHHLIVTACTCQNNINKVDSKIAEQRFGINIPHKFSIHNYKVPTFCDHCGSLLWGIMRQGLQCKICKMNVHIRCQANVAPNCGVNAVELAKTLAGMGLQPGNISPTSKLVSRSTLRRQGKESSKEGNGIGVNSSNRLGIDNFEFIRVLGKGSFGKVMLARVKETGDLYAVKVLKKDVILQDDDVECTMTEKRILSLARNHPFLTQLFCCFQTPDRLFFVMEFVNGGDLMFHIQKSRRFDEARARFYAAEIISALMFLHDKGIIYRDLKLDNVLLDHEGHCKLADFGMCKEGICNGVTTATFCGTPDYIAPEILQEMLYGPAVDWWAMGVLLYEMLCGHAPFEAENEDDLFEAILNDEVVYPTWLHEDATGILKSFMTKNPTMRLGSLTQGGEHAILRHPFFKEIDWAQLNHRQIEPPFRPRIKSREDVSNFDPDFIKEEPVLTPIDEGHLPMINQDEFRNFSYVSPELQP
LATS1 (human), sequence (O95835 whole entry, looked up): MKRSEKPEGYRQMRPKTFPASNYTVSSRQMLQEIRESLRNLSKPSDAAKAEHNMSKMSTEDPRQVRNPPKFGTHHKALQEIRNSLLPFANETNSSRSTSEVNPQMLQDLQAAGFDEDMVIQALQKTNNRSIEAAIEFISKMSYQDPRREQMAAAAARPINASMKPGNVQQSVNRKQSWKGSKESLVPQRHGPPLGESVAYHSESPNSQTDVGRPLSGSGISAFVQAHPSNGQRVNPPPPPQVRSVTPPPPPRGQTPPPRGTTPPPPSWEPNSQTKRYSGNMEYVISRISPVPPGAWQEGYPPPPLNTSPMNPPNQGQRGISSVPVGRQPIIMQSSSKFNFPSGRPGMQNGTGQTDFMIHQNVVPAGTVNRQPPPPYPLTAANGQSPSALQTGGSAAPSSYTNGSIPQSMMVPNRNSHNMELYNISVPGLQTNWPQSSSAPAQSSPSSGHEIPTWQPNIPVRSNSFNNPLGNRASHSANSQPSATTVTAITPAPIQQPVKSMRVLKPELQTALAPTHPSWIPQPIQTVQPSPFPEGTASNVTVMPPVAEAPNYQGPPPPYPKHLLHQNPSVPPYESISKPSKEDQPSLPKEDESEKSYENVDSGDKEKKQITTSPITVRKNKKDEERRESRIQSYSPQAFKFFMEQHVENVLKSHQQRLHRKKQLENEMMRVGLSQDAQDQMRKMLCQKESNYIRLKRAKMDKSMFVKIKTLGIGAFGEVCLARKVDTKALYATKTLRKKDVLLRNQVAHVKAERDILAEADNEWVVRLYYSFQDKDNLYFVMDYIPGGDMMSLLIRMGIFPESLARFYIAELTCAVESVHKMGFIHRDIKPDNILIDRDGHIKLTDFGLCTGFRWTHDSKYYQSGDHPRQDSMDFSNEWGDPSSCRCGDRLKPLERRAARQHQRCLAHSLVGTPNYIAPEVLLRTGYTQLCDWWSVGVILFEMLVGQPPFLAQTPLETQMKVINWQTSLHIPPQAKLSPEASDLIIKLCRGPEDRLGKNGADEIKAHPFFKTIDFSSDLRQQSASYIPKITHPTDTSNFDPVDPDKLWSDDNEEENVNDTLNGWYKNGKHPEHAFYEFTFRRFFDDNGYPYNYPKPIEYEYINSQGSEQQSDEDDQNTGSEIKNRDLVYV
FGR (human), sequence (P09769 whole entry, looked up): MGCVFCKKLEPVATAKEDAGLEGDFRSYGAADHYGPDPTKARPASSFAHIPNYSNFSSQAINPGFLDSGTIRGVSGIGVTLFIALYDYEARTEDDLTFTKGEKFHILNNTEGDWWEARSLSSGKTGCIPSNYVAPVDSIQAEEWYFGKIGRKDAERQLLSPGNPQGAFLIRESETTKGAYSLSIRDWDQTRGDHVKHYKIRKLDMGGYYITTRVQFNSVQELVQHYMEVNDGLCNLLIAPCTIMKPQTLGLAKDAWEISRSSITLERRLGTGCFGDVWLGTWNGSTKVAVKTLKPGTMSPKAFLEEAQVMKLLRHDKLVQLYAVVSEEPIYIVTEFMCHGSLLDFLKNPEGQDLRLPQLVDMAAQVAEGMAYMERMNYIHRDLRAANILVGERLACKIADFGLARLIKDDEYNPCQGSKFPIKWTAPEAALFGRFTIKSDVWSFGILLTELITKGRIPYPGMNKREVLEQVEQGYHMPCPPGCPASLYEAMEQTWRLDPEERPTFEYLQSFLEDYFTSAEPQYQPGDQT
CDKL1 (human), sequence (Q00532 whole entry, looked up): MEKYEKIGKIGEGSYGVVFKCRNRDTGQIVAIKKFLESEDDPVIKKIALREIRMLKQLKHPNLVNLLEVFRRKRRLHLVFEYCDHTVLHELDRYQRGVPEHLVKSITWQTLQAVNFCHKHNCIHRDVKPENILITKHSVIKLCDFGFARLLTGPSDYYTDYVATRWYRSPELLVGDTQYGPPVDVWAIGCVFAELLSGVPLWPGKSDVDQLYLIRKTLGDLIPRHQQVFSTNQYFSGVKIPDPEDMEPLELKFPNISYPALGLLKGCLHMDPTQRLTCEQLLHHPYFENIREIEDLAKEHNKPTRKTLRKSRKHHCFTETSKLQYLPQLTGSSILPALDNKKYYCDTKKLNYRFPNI

Compound: COc1cc(C(=O)N2CCC(N3CCN(C)CC3)CC2)ccc1Nc1ncc2c(n1)N(C)c1ccccc1C(=O)N2C
- kinase still bound, per cent of control (ACVR2B (human)): 100%
- kinase still bound, per cent of control (AKT3 (human)): 100%
- kinase still bound, per cent of control (AURKC (human)): 50%
- kinase still bound, per cent of control (BMPR1A (human)): 100%
- residual activity (CDK15 (human)): 100%
- residual activity (CDK19 (human)): 100%
- residual activity (CDKL1 (human)): 78%
- residual activity (CDKL5 (human)): 100%
- kinase still bound, per cent of control (CSNK1G2 (human)): 100%
- kinase still bound, per cent of control (CSNK2A2 (human)): 93%
- kinase still bound, per cent of control (DYRK2 (human)): 76%
- kinase still bound, per cent of control (EPHA1 (human)): 100%
- kinase still bound, per cent of control (FGR (human)): 84%
- kinase still bound, per cent of control [1]: 73%
- kinase still bound, per cent of control (HIPK4 (human)): 100%
- kinase still bound, per cent of control (LATS1 (human)): 100%
- kinase still bound, per cent of control (MAP3K1 (human)): 95%
- kinase still bound, per cent of control (MAP3K15 (human)): 69%
- kinase still bound, per cent of control (MAP3K7 (human)): 98%
- kinase still bound, per cent of control (NEK5 (human)): 100%
- kinase still bound, per cent of control (NEK7 (human)): 100%
- kinase still bound, per cent of control [2]: 20%
- kinase still bound, per cent of control (PIM3 (human)): 88%
- kinase still bound, per cent of control (PIP5K1C (human)): 96%
- kinase still bound, per cent of control (PRKAA2 (human)): 66%
- kinase still bound, per cent of control (PRKCH (human)): 100%
- kinase still bound, per cent of control (PTK2 (human)): 34%
- kinase still bound, per cent of control (PTK2B (human)): 78%
- kinase still bound, per cent of control (RPS6KA1 KD2 (human)): 10%
- kinase still bound, per cent of control (RPS6KA4 KD2 (human)): 46%
- kinase still bound, per cent of control (RPS6KB1 (human)): 100%
- kinase still bound, per cent of control (SRMS (human)): 77%
- kinase still bound, per cent of control (SRPK2 (human)): 100%
- kinase still bound, per cent of control (STK16 (human)): 62%
- kinase still bound, per cent of control (STK33 (human)): 10%
- kinase still bound, per cent of control (STK36 (human)): 97%
- kinase still bound, per cent of control (STK38 (human)): 96%
- kinase still bound, per cent of control (STK38L (human)): 100%
- kinase still bound, per cent of control (TEC (human)): 100%
- kinase still bound, per cent of control (TTK (human)): 28%
- kinase still bound, per cent of control (ULK2 (human)): 67%
